For the assay, the target named is recombinant extracellular domain of EGFR (EGFR-ECD) (Homo sapiens, UniProt P00533). Put plainly: Microscale thermophoresis (MST), EGFR-ECD binding. The method, then:
Recombinant human protein was labeled with a Monolith NT Protein Labeling Kit RED-NHS (Nanotemper, Munich, Germany) and diluted to 50 nM with HEPES buffer (10 mM HEPES, 150 mM NaCl, 0.05% Tween). […] Samples were incubated at room temperature for 5 minutes. The mixtures were centrifuged at 16,000×g for 5 minutes and loaded into capillaries. Microscale thermophoresis measurements were performed using a Monolith NT.115 (Nanotemper, Munich, Germany).

Structures are written as SMILES.

recombinant extracellular domain of EGFR (EGFR-ECD), sequence (P00533 25-645 limits assumed): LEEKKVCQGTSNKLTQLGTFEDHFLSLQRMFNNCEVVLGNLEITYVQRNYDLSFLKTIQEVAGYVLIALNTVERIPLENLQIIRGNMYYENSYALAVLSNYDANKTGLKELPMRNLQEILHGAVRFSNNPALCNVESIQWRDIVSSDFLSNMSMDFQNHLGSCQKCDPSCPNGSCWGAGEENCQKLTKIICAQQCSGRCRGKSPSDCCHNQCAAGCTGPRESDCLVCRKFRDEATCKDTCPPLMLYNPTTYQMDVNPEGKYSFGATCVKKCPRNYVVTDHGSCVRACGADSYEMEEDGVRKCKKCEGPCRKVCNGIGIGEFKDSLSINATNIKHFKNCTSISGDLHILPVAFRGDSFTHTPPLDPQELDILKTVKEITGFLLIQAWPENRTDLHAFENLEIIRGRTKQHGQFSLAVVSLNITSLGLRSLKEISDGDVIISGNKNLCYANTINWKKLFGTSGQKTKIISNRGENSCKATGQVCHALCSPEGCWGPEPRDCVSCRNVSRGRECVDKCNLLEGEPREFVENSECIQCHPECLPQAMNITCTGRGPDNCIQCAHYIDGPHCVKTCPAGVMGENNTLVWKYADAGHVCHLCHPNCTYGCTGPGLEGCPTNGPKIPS

`CC(C)CCC[C@@H](C)[C@H]1CC[C@H]2[C@@H]3CCC4=CC(=O)CC[C@]4(C)[C@H]3CC[C@]12C` [4-C-3, 4-cholesten-3-one]: the dissociation constant Kd (as a rule, the equilibrium constant for the complex coming apart) was 5.6 µM.

Values taken from patent US20260077000A1, “METABOLIC MODULATION OF INTRATUMORAL CHOLESTEROL WITH ENGINEERED BACTERIA FOR THE TREATMENT OF CANCERS” (Hong Kong Baptist University, priority 2024, published 2026).
